Data set [1] has as its system C. neoformans strain H99. The data set is described as follows: Murine cryptococcal infection, lung fungal burden (Example 3). In kind it is in vivo, Cryptococcus neoformans in A/J mice. Particulars: once daily; fluconazole 12 mg/kg, JH-FK-08 40 mg/kg. The procedure: In vivo antifungal activity and therapeutic benefit were assayed by investigating the impact of the FK520 analog on organ fungal burden during cryptococcosis. Specifically, the in vivo efficacy of JH-FK-08 on fungal burden was assessed using A/J female mice. Immunodeficient A/J mice were selected in part due to their defect in complement component five and their susceptibility to cryptococcal infection. Treatment groups included vehicle of 10% Kolliphor: ethanol (1:1) in phosphate-buffered saline (PBS), […], or the fluconazole and JH-FK-08 combination, […] infection. […] Mice were intranasally infected with C. neoformans strain H99, and fungal burden in the lung, spleen, and brain was assessed after 14 days of treatment.
C. neoformans inoculum was prepared by growing a 5-mL overnight YPD culture spinning in a tissue culture roller drum at 30° C. Cells were pelleted by centrifugation and washed in sterile PBS three times. Cell density was determined by hemocytometer, and cells were diluted to 2×10^6 cells/mL. Mice (10 to 20 g) were infected with 10^5 cells of C. neoformans H99. For inhalation infection, animals were anesthetized with isoflurane before 50 μL of inoculum was pipetted onto the upright nasal passages of each animal. Following inhalation of the inoculum, animals were monitored for post anesthesia recovery. Treatment of animals began 4 hours post infection and was continued for 14 days. Fungal burden was assessed 24 h after the final dose.
For survival curve analysis, animals were monitored until reaching defined humane end points, including social isolation, hunched posture, weight loss, lack of grooming, and labored breathing, and were then euthanized via CO2 inhalation. […] One hundred microliters of each dilution was plated on YPD plates supplemented with YPD 50 μg/mL ampicillin and 30 μg/mL chloramphenicol, incubated at 30° C. for 2 days, and assessed for colony-forming units. CFU per organ weight was calculated and plotted using GraphPad Prism 9.

The test system of data set [2] is Cryptococcus deneoformans. The data set is described as follows: MIC assay (Example 3). Particulars: 72 hours with 5 times starting amount of cells. The data set is classed as cell-based. How it is done:
For the lead compound JH-FK-08, the mechanism of action resulting in antifungal activity was tested for conservation of calcineurin inhibition. To probe the JH-FK-08 mechanism of action, MICs of JH-FK-08 were determined with fungal mutants that lack the drug-binding protein FKBP12 or have mutations in the binding site on calcineurin that prevent FKBP12-FK506 binding and inhibition. […] Taken together, these findings support the hypothesis that JH-FK-08 requires FKBP12 for antifungal activity, and the target of the FKBP12-JH-FK-08 complex is calcineurin. The length of time that drugs are active in vivo is critical information relevant to drug development, and the time frame of drug activity can have a drastic impact on treatment regimen and efficacy. Therefore, the pharmacokinetic profiles of FK506 and JH-FK-08 were investigated. Three male and three female CD1 mice were administered a single dose of JH-FK-08 or FK506 at 40 mg/kg. Whole blood samples were taken over a 24-hour period, and the drug concentration remaining in the blood was determined. Pharmacokinetic parameters were calculated using a non-compartmental approach (see, Gabrielsson J, Weiner D. 2012. Methods Mot Biol Clifton NJ 929:377-389). […] When assessing specific pharmacokinetic measures, sex differences began to emerge.
In vitro antifungal activity was assessed for all fungal strains in RPMI 1640 (Sigma-Aldrich R1383). MICs were measured using Clinical and Laboratory Standards Institute (CLSI) M38-A2 and M27-A3 standard in vitro antifungal susceptibility protocols. C. neoformans and A. fumigatus testing was performed at 37° C. MECs for A. fumigatus were recorded after 48 h of growth. C. albicans testing was performed at 30° C. with a uniform concentration of 2 μg/mL of fluconazole to sensitize the cells to calcineurin inhibition.
C. neoformans clinical isolate H99 and congenic-derived strain KN99α were used (see, Nielsen K, et al., 2003. Infect Immun 71:4831-4841). […]

Data set [3] has as its system C. neoformans strain H99. The data set is described as follows: Histopathological analysis of lung tissue. The data set is classed as in vivo, Cryptococcus neoformans in A/J mice. Particulars: infected lung, PAS and H&E staining.
Data set [4] concerns IL-2 expression in primary mouse CD4+ T cells (mammalian calcineurin). The settings on record: previous studies; cited from earlier work.
The nature of data set [5]: In vivo tolerability of JH-FK-05. Set-up: species or system mouse. Particulars: daily i.p., up to 60 mg/kg. The procedure: Based on the in vitro evidence of reduced immunosuppressive activity of JH-FK-05, it was hypothesized that this reduction would translate into reduced immunosuppression in an in vivo model. The murine model for immunosuppression measures the T cell-dependent proliferation of two immune cell subtypes in response to immunization with an antigen. Animals were treated daily via intraperitoneal (i.p.) injection with vehicle, 5 mg/kg FK506, or 60 mg/kg JH-FK-05, beginning on day −1 and ending on day 7. […] On day 0, animals were immunized with NP-OVA to stimulate T cell-dependent signaling that would result in proliferation of T follicular helper (Tfh) cells and germinal center (GC) B cells. Animals were sacrificed on day 7, and the proportions of Tfh and GC B cells in the lymph nodes were measured. […]
Groups of 6 female C57BL/6 mice (Jackson Laboratory) were treated daily by intraperitoneal (i.p.) injection with about 100 μL vehicle, 5 mg/kg FK506, or 60 mg/kg JH-FK-05 beginning on day −1. […] Mice were treated and monitored daily until they were sacrificed on day 7. Draining lymph nodes were harvested on day 7, and the populations of T follicular helper cells and GC B cells were analyzed by flow cytometry. Tfh and GC B cells were measured from T Cell Receptor β (TCRβ^+) CD4^+CD44^hi cells and TCRβ^−CD19^+ cells, respectively.

Entries after “also recorded” stand apart in the source; their conditions may differ.

With `CC[C@@H]1/C=C(\C)C[C@H](C)C[C@H](OC)[C@H]2O[C@@](O)(C(=O)C(=O)N3CCCC[C@H]3C(=O)O[C@H](/C(C)=C/C3CC[C@@H](O)[C@H](OC)C3)[C@H](C)[C@@H](O)C/C1=N/NC(=O)OC)[C@H](C)C[C@@H]2OC` (stereo partly shown) [JH-FK-08], the “lung fungal burden reduction” value in data set [1] is “limited efficacy in reducing lung fungal burden”. Besides, the MIC/MEC was more than 25 µg/mL in data set [2] (strain C21F2 (JEC21 CNB1-1)), more than 25 µg/mL in data set [2] (strain C21F3 (JEC21 frr1)) and less than 0.4 µg/mL in data set [2] (strain JEC21). Besides, in data set [3], the “inflammatory response in lung tissue” value is “expected granulomatous inflammatory response admixed with mature lymphocytes and neutrophils”.

With `C=CCC1C=C(C)CC(C)CC(OC)C2OC(O)(C(=O)C(=O)N3CCCCC3C(=O)OC(C(C)=CC3CCC(O)C(OC)C3)C(C)C(O)CC1=O)C(C)CC2OC` (stereo not shown) [FK506, reference compound], the “effect on T cells” value in data set [4] was “cytotoxic and reduce the proliferation of T cells”.

`CC[C@@H]1/C=C(\C)C[C@H](C)C[C@H](OC)[C@H]2O[C@@](O)(C(=O)C(=O)N3CCCC[C@H]3C(=O)O[C@H](/C(C)=C/[C@@H]3CC[C@@H](O)[C@H](OC)C3)[C@H](C)[C@@H](O)C/C1=N/NC(C)=O)[C@H](C)C[C@@H]2OC` [JH-FK-05]: the “tolerability” value in data set [5] is “tolerated at a dose as high as 60 mg/kg; also recorded: well tolerated by animals throughout the course of treatment; also recorded: animals tolerated JH-FK-05 treatment for the full treatment period”.

Values taken from US20260315446A1, “ANTIFUNGAL COMPOUNDS AND USES THEREOF” (priority 2023, published 2026).
